Measured values as given in patent publication US7888319B2, “Compositions and methods for promoting wound healing and tissue regeneration” (MUSC Foundation for Research Development, priority 2004, dated 2011).
Ends that are not written are not given here.

What was measured:
NIH-3T3 cells = test: In vitro scratch injury of NIH-3T3 monolayer (repopulation, PCNA immunolabeling); type: cell-based; settings: 30 μM
Description: An NIH-3T3 monolayer was pre-treated with ACT 1 peptide (SEQ ID NO:2) for 24 hrs, and “scratch-injured” with a p200 pipette tip. The “scratch injury” was subsequently allowed to “heal” for 24 hours in the presence of (a, b) 30 μM ACT 1 peptide (SEQ ID NO:2), (c, d) 30 μM non-active control peptide (SEQ ID NO: 55), or (e, f) vehicle control solution containing no ACT peptide or control peptide. […] The repopulation of the “scratch injury” occurs in part via migration of the transformed cells crawling into the “scratch injury” area. Figures (b), (d) and (f) show proliferating cell nuclear antigen (PCNA) immunolabeling of cells in the “scratch injury” or at the injury edge.
NIH-3T3 fibroblasts were “scratch injured” and subject to the continuous presence of 30 μM ACT 1 peptide (SEQ ID NO:2) for 24 hours or the control conditions as outlined in FIG. 2. […] The cells have been labeled with fluorescent phalloidin to aid visualization. ACT peptide-treated cells show low levels of repopulation of the scratch injury area (white double headed arrows).
NIH-3T3 cells were grown over 2-3 days until forming a near-confluent monolayer on a tissue culture dish according to standard protocols and the monolayer was then pre-treated with ACT 1 peptide (SEQ ID NO:2) for 24 hrs, and “scratch-injured” with a p200 pipette tip. The “scratch injury” was subsequently allowed to repopulate for 24 hours in the presence of 30 μM ACT 1 peptide (SEQ ID NO:2) dissolved in the culture media (FIG. 2a, b) or in presence of two control conditions (FIG. 2c-f). In the first control condition, the “scratch-injured” cells were allowed to repopulate for 24 hours in the presence of a non-active control peptide (as in FIG. 1) dissolved in the culture media at a concentration of 30 μM (FIG. 2c, d). In the second control condition, phosphate buffered saline (PBS) was added to the culture media and the “scratch-injured” cells were allowed to repopulate in the presence of this vehicle control solution containing no ACT peptide or control peptide (FIG. 2e, f). […] The repopulation of the “scratch injury” occurs in part via migration of the transformed cells crawling into the “scratch injury” area. Figures (FIGS. 2b, d, and f) show proliferating cell nuclear antigen (PCNA) immunolabeling of cells in the “scratch injury” or at the injury edge.
The cells were labeled with fluorescent phalloidin to aid visualization. ACT peptide-treated cells show low levels of repopulation of the scratch injury area (white double headed arrows).

[1] = tested on: 8 mm wide circular excisional skin injuries; test: Large (8 mm) excisional skin injury in adult mice; type: in vivo, mouse
Description: Anesthetized adult mice had 8 mm wide circular excisional skin injuries made by fine surgical scissors down to the underlying muscle in the dorsal mid line between the shoulder blades (i.e., as shown in (a) an (b). The boundary of the injury was demarcated by an 8 mm wide circular template cut in a plastic sheet. 100 μl of a solution of 30% pluronic gel containing either no (control) or dissolved ACT 1 peptide (SEQ ID NO:2) at a concentration of 100 μM was then applied to the excisional injuries. Control or ACT peptide containing gel was applied subsequently 24 hours after the initial application. No further applications of control and ACT peptide containing gel were made after the second application. […] Note that images of the same injury on the same animal are shown at the different time points during the healing time course. […] Skin biopsies of the entire wound site were taken from some of the mice 24 hours following the excisional injury in the experiment described in FIG. 6. Figures (a) and (b) show low magnification survey views of cross-sections from near the center of the wound of control and ACT peptide treated injuries respectively. The wound edge (marked by the small arrows), bounded by skin of normal histological appearance, can be seen in both cases. A black rectangle is placed over the images in (a) and (b) at the left hand wound edge. The histological structures within these two rectangles are shown at higher magnification in (c) and (d) for control and ACT peptide treated tissues, respectively. Of most interest is a “collar-like” tissue of aligned fibrous material (arrowed) projecting from basal parts of the injury to or toward the wound edge and exterior surface of injury. The aligned fibrous substrate has the appearance of being much more organized in the control injury (d) than in the ACT peptide treated injury (c). […] This is confirmed in (e) and (f) where regions of histological section within the black rectangles shown in (c) and (d) are respectively shown at higher magnification. The inflammatory cells studding the aligned fibrous substrate include mast cells, neutrophils and macrophages. These inflammatory cells occur at much higher density in the control injury than in the ACT peptide treated injury. […] At the end of the 14 day period in the experiment described in FIG. 6, skin biopsies of the entire excisional injury were taken and histological sections from these skin samples were H&E histochemically stained. Figures (a) and (b) show low magnification survey views of cross-sections from near the center of the injury of ACT peptide and control respectively. The wound edge (marked by the small arrows), bounded by skin of normal histological appearance, can be seen in both cases. A black rectangle is placed over the images in (a) and (b) near the center of each injury. The histological structures within these two rectangles are shown at higher magnification in (c) and (d) for the ACT peptide and control tissues respectively. It is evident that tissue within the ACT peptide treated injury locus has considerably more complexity. […] By comparison, re-epithelization of the injury surface is incomplete and there is no sign of regenerating hair follicles in the epithelium of the control injury (d). […] As with, the hair follicles this tissue complexity was regenerated by differentiation of stem cells. […]

RPRPDDLEI (not fully specified (N-terminus)) [ACT 1, carboxy-terminal 9 amino acids of human Cx43; amino terminus biotinylated in tests]
proliferating cell nuclear antigen (PCNA) immunolabeling of cells in the scratch injury or at the injury edge (NIH-3T3 cells; 24 hours after scratch): only low luminosity consistent with background and non-proliferation | % area of cells repopulating the scratch injury after 24 hours (NIH-3T3 cells; 24 hours, vs control conditions, p<0.000001): reduction of cells in the injury area in the presence of ACT peptide is dramatic | closure, inflammation, healing and scarring of injury ([1]; 100 μM in 30% pluronic gel, 100 μl, applied at 0 and 24 hours, 14 day time course, vs gel without peptide): closed faster, was less inflamed in appearance, healed faster and scarred less | re-epithelization of the injured surface ([1]; 100 μM, 14 days, H&E histology): re-epithelization of the injured surface is complete | regenerating hair follicles in the new epithelium ([1]; 100 μM, 14 days, H&E histology): regenerating hair follicles can already be seen | restoration of tissue structural complexity beneath the reformed epithelium ([1]; 100 μM, 14 days, H&E histology): considerable restoration of normal structural complexity | density of inflammatory cells studding the fibrous substrate at the wound edge ([1]; 100 μM, skin biopsy 24 hours after injury, H&E histology): considerably lower density of inflammatory cells
